Source: US10300058B2, “Tyrosine kinase inhibitor and uses thereof” (Xuanzhu Pharma Co., Ltd., priority 2014, dated 2019)
pIC50: −log10 of the molar value.

Legend:
wild-type EGFR (WT EGFR) = wild-type EGFR (WT EGFR) (Homo sapiens (Human), UniProt P00533); experiment: Mobility Shift Assay, in vitro enzyme-inhibiting activity, wild-type EGFR; format: biochemical; settings: Km ATP
Protocol: (§1) 1. Preparation of Reagents
(§2) 2. Preparation of a Compound Solution
(§3) (1) To the second well of a 96-well plate, 5 μL 10 mM compound (dissolved in DMSO) was added, and 95 μL 100% DMSO was added to prepare 100 μL 0.5 mM compound.
(§4) (2) To other wells, 60 μL 100% DMSO was added. 20 μL compound from the second well was added to the third well, and 4-fold dilution was further performed to get 10 diluted concentrations.
(§5) (3) To the first well and the twelfth well of the 96-well plate, 100 μL 100% DMSO was separately added, and the two wells were used as control wells.
(§6) (4) 10 μL from each well of the 96-well plate was added to another 96-well plate, and 90 μL 1-fold kinase buffer was added.
(§7) (5) 5 μL from the 96-well plate was added to another 384-well plate, for example, transferred from A1 well of the 96-well plate to A1 and A2 wells of the 384-well plate, and transferred from A2 well of the 96-well plate to A3 and A4 wells of the 384-well plate, and so on.
(§8) To 384-well plate, 10 μL 2.5-fold enzyme solution was added, and incubated at room temperature for 10 min.
(§9) (5) Kinase reaction and stop
(§10) After incubation at 28° C. for a period of time (depending on kinase), 25 μL stop solution was added.
(§11) 4. Data on percent conversion was read by Caliper.
(§12) (1) Data on enzyme activity was obtained by Caliper program;
(§13) (2) Inhibition rate of enzyme activity was calculated from the data on enzyme activity by the following formula: Inhibition rate(%)=(maximal value−the measured value of a test compound)/(maximal value-minimal value)×100,
(§14) wherein, the maximal value represents the measured value of DMSO control; and the minimal value represents the measured value of blank control.
(§15) (3) Calculation of IC50 value by XLFit excel.

EGFR T790M = EGFR T790M (Homo sapiens (Human), UniProt P00533, T790M); experiment: Mobility Shift Assay, in vitro enzyme-inhibiting activity, EGFR T790M; format: biochemical; settings: for pIC50: Km ATP; for Selectivity (WT/T790M): ratio of IC50
Protocol: as §1, §2, §3, §4, §5, §6, §7, §8, §9, §10, §11, §12, §13, §14, §15

EGFR L858R = EGFR L858R (Homo sapiens (Human), UniProt P00533, L858R); experiment: Mobility Shift Assay, in vitro enzyme-inhibiting activity, EGFR L858R; format: biochemical; settings: Table 5
Protocol: as §1, §2, §3, §4, §5, §6, §7, §8, §9, §10, §11, §12, §13, §14, §15

EGFR T790M-L858R = EGFR T790M-L858R (Homo sapiens (Human), UniProt P00533, L858R/T790M); experiment: Mobility Shift Assay, in vitro enzyme-inhibiting activity, EGFR T790M-L858R; format: biochemical; settings: Table 5
Protocol: as §1, §2, §3, §4, §5, §6, §7, §8, §9, §10, §11, §12, §13, §14, §15

EGFR (d746-750) = EGFR (d746-750) (Homo sapiens (Human), UniProt P00533, DEL746-750); experiment: Mobility Shift Assay, in vitro enzyme-inhibiting activity, EGFR (d746-750); format: biochemical; settings: Table 5
Protocol: as §1, §2, §3, §4, §5, §6, §7, §8, §9, §10, §11, §12, §13, §14, §15

[1] = system: H1975 cell (EGFR-T790M/L858R double mutation); experiment: In vitro cytologic activity, Celltiter-Glo, H1975 cells; format: cell-based, human; settings: for pIC50: Homo sapiens, NCI-H1975, 72 h, 72 h, Celltiter-Glo; for Selectivity (A431/H1975): ratio of IC50
Protocol: (§16) 1.1 Preparation of Cell Suspension
(§17) Culture medium was removed from culture bottle;
(§18) PBS was added to wash the cells; • pancreatin was added for digestion, and the cells were collected by centrifugation; • the cells were resuspended in a culture medium containing 10% fetal bovine serum, counted and adjusted to a concentration of 2×10^4/mL or 3×10^4/mL (cell viability must be greater than 90%); • the cell suspension was added to a 96-well plate, at 100 μL for each well, i.e., 2000/well for H1975 cell; 3000/well for A431 cell; and • the cells were cultured at 37° C. in 5% CO2 incubator overnight.
(§19) Dilution of a compound in DMSO (or water for injection) • (1) The compound was 5-fold diluted with DMSO from 10 mM to 2 mM, and then 4-fold diluted from 2 mM, to get 10 concentrations; • High control (HC, control without compound inhibition): 0.5% DMSO; • Low control (LC, control with compound inhibition): 1000 nM.
(§20) i. To each well, 99 μL growth medium containing 10% FBS was added, and then 1 μL diluted compound was added, the total volume of the well was […], and the final concentration of the compound was measured.
(§21) The test plate was left at room temperature, and equilibrated for 30 min. 80 μL culture medium was discarded. 60 μL CTG reagent (Celltiter-Glo kit) was added, and shaked for 2 min in a fast shaker, and was placed at room temperature for 10 min. The values were read by Envision instrument.

[2] = system: A431 cell (wild-type EGFR gene); experiment: In vitro cytologic activity, Celltiter-Glo, A431 cells; format: cell-based; settings: Homo sapiens, A-431, 72 h
Protocol: as §16, §17, §18, §19, §20, §21

Chain of EGFR T790M (P00533 25-1210 T790M): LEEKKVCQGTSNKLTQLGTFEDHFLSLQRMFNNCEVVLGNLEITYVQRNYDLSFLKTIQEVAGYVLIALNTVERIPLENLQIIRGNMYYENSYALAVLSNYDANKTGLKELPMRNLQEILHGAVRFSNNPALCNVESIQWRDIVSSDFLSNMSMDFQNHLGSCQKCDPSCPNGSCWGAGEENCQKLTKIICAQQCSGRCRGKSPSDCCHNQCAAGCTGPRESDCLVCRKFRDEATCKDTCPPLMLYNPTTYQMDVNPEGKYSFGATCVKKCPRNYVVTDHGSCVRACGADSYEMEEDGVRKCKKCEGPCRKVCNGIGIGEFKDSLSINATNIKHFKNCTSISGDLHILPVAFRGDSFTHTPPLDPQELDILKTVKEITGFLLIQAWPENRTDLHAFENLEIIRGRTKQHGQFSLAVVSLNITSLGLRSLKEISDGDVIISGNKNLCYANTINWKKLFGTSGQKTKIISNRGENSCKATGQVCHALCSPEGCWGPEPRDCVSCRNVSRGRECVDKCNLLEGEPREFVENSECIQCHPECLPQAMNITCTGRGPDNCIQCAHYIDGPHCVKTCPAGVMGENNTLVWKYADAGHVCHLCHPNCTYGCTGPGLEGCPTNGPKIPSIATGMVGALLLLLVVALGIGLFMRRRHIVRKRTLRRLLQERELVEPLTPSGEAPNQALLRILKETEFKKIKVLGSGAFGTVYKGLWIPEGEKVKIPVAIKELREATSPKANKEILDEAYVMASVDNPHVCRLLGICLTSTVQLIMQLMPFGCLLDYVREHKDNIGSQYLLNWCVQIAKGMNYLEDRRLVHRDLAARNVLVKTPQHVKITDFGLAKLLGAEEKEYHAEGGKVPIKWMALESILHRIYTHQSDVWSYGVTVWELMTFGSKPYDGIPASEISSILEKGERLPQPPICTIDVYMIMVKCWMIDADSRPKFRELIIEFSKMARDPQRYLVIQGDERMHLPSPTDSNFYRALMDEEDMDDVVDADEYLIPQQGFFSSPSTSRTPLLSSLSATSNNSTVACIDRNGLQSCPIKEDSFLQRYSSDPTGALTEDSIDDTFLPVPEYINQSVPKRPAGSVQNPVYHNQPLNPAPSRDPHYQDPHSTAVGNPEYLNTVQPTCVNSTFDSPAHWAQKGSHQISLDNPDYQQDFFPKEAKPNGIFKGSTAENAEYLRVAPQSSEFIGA
Chain of wild-type EGFR (WT EGFR) (P00533 25-1210): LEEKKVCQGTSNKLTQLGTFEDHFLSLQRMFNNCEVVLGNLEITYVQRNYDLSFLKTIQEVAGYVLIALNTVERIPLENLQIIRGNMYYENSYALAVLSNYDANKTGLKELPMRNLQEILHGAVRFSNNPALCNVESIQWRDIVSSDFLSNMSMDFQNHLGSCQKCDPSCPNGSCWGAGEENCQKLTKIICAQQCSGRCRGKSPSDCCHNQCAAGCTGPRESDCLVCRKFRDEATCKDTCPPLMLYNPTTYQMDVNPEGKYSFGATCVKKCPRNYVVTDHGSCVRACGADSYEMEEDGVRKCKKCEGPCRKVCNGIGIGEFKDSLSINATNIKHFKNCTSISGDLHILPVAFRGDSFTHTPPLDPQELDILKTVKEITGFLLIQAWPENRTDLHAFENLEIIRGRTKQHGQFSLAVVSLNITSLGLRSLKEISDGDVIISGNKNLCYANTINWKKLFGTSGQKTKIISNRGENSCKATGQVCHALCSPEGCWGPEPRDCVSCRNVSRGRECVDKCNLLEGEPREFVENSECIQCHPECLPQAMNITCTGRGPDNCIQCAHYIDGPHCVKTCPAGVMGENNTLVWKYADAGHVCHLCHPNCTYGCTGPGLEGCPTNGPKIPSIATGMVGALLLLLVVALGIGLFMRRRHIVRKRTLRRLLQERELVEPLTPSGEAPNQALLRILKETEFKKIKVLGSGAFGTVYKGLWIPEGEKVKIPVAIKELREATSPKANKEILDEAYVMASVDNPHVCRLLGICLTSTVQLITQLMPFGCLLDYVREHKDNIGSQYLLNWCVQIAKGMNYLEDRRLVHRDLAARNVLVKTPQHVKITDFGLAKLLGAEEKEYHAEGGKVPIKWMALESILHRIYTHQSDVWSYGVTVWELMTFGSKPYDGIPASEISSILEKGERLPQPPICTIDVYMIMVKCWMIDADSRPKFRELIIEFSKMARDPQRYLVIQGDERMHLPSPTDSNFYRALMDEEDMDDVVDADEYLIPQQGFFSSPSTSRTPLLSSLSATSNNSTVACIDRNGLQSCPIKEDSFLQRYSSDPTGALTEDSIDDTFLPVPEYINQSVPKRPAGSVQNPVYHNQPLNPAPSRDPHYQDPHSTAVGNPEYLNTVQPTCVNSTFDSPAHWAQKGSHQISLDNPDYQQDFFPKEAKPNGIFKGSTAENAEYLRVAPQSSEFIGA
Chain of EGFR L858R (P00533 25-1210 L858R): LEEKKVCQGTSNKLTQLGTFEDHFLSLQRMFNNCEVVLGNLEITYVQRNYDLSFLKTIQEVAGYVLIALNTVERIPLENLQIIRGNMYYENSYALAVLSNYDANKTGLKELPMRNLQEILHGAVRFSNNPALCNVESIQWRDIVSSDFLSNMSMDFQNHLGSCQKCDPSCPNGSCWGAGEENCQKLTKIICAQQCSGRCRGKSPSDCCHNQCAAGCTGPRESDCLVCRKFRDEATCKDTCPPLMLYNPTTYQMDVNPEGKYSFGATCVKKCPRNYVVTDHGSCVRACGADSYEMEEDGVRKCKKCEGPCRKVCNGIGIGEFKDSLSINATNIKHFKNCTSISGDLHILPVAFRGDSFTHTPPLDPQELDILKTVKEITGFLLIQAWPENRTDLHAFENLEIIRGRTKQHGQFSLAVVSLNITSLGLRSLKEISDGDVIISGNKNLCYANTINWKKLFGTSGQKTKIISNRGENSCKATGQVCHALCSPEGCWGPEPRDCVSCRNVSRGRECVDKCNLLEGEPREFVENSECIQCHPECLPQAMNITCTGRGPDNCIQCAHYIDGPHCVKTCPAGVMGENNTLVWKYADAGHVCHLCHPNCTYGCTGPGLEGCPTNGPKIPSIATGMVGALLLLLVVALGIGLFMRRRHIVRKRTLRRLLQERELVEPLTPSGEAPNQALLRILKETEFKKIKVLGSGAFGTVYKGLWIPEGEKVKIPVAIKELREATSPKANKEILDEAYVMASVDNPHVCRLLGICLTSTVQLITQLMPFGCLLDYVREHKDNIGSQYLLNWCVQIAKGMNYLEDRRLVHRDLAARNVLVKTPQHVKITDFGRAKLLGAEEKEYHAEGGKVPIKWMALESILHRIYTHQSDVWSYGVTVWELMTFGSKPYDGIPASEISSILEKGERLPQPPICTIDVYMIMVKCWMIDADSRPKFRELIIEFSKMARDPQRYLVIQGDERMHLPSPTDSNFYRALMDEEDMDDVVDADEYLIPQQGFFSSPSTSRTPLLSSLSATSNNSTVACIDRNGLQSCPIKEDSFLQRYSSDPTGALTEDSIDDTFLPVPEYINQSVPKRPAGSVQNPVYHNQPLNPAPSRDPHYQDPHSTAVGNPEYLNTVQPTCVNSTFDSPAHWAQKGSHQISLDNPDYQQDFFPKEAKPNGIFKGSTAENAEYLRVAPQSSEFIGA
Chain of EGFR T790M-L858R (P00533 25-1210 T790M/L858R): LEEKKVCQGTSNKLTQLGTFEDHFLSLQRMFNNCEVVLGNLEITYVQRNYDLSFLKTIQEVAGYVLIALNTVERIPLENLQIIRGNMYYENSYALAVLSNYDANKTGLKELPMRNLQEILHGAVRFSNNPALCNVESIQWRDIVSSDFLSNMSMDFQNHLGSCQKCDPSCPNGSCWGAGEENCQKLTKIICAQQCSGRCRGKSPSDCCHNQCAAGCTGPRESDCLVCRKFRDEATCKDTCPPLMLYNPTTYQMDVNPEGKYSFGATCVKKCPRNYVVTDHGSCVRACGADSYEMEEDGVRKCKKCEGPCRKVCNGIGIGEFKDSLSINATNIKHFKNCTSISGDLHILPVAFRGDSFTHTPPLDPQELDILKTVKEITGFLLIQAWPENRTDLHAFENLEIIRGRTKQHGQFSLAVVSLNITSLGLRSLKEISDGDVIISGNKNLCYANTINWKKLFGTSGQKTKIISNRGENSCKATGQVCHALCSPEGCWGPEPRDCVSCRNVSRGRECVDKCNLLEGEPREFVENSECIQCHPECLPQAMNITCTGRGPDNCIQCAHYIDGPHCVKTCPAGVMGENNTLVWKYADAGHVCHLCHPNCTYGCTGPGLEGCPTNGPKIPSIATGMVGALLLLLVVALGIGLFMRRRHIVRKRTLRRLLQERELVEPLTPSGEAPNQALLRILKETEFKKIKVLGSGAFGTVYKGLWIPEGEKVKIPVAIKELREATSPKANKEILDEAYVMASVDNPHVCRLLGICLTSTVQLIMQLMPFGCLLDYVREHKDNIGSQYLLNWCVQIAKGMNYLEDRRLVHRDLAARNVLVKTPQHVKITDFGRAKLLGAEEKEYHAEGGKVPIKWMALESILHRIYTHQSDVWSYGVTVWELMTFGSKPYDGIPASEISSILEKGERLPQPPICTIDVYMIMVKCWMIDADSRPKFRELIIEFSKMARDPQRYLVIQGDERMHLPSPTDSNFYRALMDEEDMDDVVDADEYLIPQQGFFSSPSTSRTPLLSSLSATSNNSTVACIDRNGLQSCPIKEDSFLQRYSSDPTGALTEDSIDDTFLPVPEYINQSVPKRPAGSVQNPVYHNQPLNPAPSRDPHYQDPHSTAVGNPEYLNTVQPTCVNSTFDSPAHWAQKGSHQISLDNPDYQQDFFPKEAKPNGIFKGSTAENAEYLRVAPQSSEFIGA

Compound | pIC50 (wild-type EGFR (WT EGFR); Table 1) | pIC50 (wild-type EGFR (WT EGFR); Table 5) | pIC50 (EGFR T790M; Table 1) | Selectivity (WT/T790M) (EGFR T790M; Table 1) | pIC50 (EGFR L858R; Km ATP) | Selectivity WT/L858R (EGFR L858R; ratio of IC50) | pIC50 (EGFR T790M-L858R; Km ATP) | Selectivity WT/T790M-L858R (EGFR T790M-L858R; ratio of IC50) | pIC50 (EGFR (d746-750); Km ATP) | Selectivity WT/d746-750 (EGFR (d746-750); ratio of IC50) | pIC50 ([1]; Table 9) | Selectivity (A431/H1975) ([1]; Table 9) | pIC50 ([2]; Table 9) | pIC50 (wild-type EGFR (WT EGFR); Table 4, unit inferred) | pIC50 (EGFR T790M; Table 4, unit inferred) | Selectivity (WT/T790M) (EGFR T790M; Table 4) | pIC50 ([1]; Table 10, unit inferred) | Selectivity (A431/H1975) ([1]; Table 10) | pIC50 ([2]; Table 10, unit inferred)
C=CC(=O)Nc1cccc(Nc2nc(Nc3ccc(N4CCN(C(C)=O)CC4)cc3OC)ncc2C(F)(F)F)n1 [Compound 1, N-(6-((2-((4-(4-acetylpiperazin-1-yl)-2-methoxyphenyl)amino)-5-(trifluoromethyl)pyrimidin-4-yl)amino)pyridin-2-yl)acrylamide] | 6.49 | 6.62 | 8.24 | 56.7 | 7.07 | 2.8 | 8.36 | 54.3 | 7.69 | 11.8 | 7.27 | 8.3 | 6.35 |  |  |  |  |  | 
C=CC(=O)Nc1cccc(Nc2nc(Nc3ccc(C4CCN(C(=O)CCF)CC4)cc3OC)ncc2C(F)(F)F)c1 [Compound 25, N-(3-((2-((4-(1-(3-fluoropropionyl)piperidin-4-yl)-2-methoxyphenyl)amino)-5-(trifluoromethyl)pyrimidin-4-yl)amino)phenyl)acrylamide] |  |  |  |  |  |  |  |  |  |  |  |  |  | 6.17 | 8.15 | 96.2 | 6.51 | 12.6 | 5.41
